These results are taken from patent US20240409585A1, “MACROCYCLIC IMMUNOMODULATORS” (priority 2021, published 2024).

Numbered stars: 1 amine (or outer) side, 2 acyl side, 3 side chain; on linkers, the order of the positions; unused ones are H or OH. Bridge positions count the residues as written; N and C are the ends. Square brackets hold non-standard residues; d marks the D form. Peptide text beside a SMILES is read from it. * marks the point of attachment. Bip(4'-COOH) = N[C@@H](Cc1ccc(-c2ccc(C(=O)O)cc2)cc1)C(=O)O; Bip(4'-NHAc) = CC(=O)Nc1ccc(-c2ccc(C[C@H](N)C(=O)O)cc2)cc1; X2 = O=C(C[C@H](N[*:1])C(=O)[*:2])NS(=O)(=O)c1ccc(Cl)cc1; X12 = O=C(NCc1cccc(C[C@H](N[*:1])C(=O)[*:2])c1)c1ccncc1; X6 = O=C(C[C@H](N[*:1])C(=O)[*:2])NS(=O)(=O)c1ccccc1Cl; Phe(3-OCH2COOH) = N[C@@H](Cc1cccc(OCC(=O)O)c1)C(=O)O; Phe(3,4-Cl2) = N[C@@H](Cc1ccc(Cl)c(Cl)c1)C(=O)O; Phe(3-CF3) = N[C@@H](Cc1cccc(C(F)(F)F)c1)C(=O)O; Ala(morpholin-4-yl) = N[C@@H](CN1CCOCC1)C(=O)O; Phe(4-COOH) = N[C@@H](Cc1ccc(C(=O)O)cc1)C(=O)O; Bip = N[C@@H](Cc1ccc(-c2ccccc2)cc1)C(=O)O; Phe(3-NH2) = Nc1cccc(C[C@H](N)C(=O)O)c1; Phe(3-F) = N[C@@H](Cc1cccc(F)c1)C(=O)O; Phe(3-I) = N[C@@H](Cc1cccc(I)c1)C(=O)O; Phe(3-Me) = Cc1cccc(C[C@H](N)C(=O)O)c1; Abu(3S-NH2) = C[C@H](N)[C@H](N)C(=O)O; hPhe = N[C@@H](CCc1ccccc1)C(=O)O; Cha = N[C@@H](CC1CCCCC1)C(=O)O; NTA = O=C(O)CN(CC(=O)O)CC(=O)*; Carboxymethyl = O=C(O)C*; NMeA = CN[C@@H](C)C(=O)O; Orn = NCCC[C@H](N)C(=O)O; Dab = NCC[C@H](N)C(=O)O

Assay [1] has as its target T1, PE-labeled human PD-L1-Ig binding to Jurkat cell line over-expressing human PD-1 (Jurkat-PD-1) (Homo sapiens, UniProt Q15116).
T1 construct: expressed in transfected cells; host or cells: Jurkat
Nature of the assay: Jurkat-PD-1 Cell Binding High-Content Screening Assay (CBA): Method 1. As to conditions: Jurkat-PD-1 cells, PE-labeled PD-L1-Ig.

In assay [2] the target is T1, PE-labeled human PD-L1-Ig binding to Jurkat cell line over-expressing human PD-1 (Jurkat-PD-1). Nature of the assay: Jurkat-PD-1 Cell Binding High-Content Screening Assay (CBA): Method 2 (presence and absence of tween-20). As to conditions: Jurkat-PD-1 cells, PE-labeled PD-L1-Ig 20 nM, presence or absence of tween-20 not given. In outline:
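Compounds incubated with Jurkat cells overexpressing human PD-1 for 2 h at 37° C, tested with and without tween-20 to flag aggregation. PE-labeled human PD-L1-Ig (20 nM final) added in DMEM/10% FCS; binding read by high-content imaging.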

Where [3] appears, read: head μM, read-out: CBA Method 2 μM.

T1 sequence (Q15116 25-288): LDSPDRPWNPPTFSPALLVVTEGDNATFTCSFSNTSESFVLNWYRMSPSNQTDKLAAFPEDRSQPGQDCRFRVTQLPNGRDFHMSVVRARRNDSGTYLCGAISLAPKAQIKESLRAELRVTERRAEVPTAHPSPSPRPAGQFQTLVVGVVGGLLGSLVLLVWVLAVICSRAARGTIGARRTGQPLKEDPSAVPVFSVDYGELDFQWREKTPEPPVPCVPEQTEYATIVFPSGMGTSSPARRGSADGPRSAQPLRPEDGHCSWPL

As for `Cc1cccc(C[C@@H]2NC(=O)[C@H](CC(=O)O)NC(=O)[C@H](Cc3ccc(OCC(=O)O)cc3)NC(=O)[C@H](CN3CCOCC3)NC(=O)CSC[C@@H](C(=O)N[C@@H](CCN)C(N)=O)NC(=O)[C@H](CCCN)NC(=O)[C@H](C(C)C)NC(=O)[C@H](Cc3ccc(Cl)c(Cl)c3)NC(=O)[C@H](CCN)NC(=O)[C@@H](CC(C)C)NC(=O)[C@H](C)N(C)C(=O)[C@H](CCC(N)=O)NC(=O)[C@H](Cc3ccc(-c4ccccc4)cc3)NC(=O)[C@H](Cc3ccc(C(=O)O)cc3)NC2=O)c1` [Example 5042] ({CH2CO}-[Ala(morpholin-4-yl)]Y(Carboxymethyl)D[Phe(3-Me)][Phe(4-COOH)][Bip]Q[NMeA][dL][Dab][Phe(3,4-Cl2)]V[Orn]C[Dab]-NH2; thioether N-14), the IC50 was 0.0639 µM in assay [1] (μM, read-out: CBA Method 1 μM) and 0.0689 µM in assay [2] (setting [3]).
As to `Cc1cccc(C[C@@H]2NC(=O)[C@H](CC(=O)O)NC(=O)[C@H](Cc3ccc(OCC(=O)O)cc3)NC(=O)[C@H](CN3CCOCC3)NC(=O)CSC[C@@H](C(=O)N[C@@H](CCN)C(N)=O)NC(=O)[C@H](CCCN)NC(=O)[C@H](C(C)C)NC(=O)[C@H](Cc3cccc(N)c3)NC(=O)[C@H](CCN)NC(=O)[C@@H](CC(C)C)NC(=O)[C@H](C)N(C)C(=O)[C@H](CCC(N)=O)NC(=O)[C@H](Cc3ccc(-c4ccccc4)cc3)NC(=O)[C@H](Cc3ccc(C(=O)O)cc3)NC2=O)c1` [Example 5040] ({CH2CO}-[Ala(morpholin-4-yl)]Y(Carboxymethyl)D[Phe(3-Me)][Phe(4-COOH)][Bip]Q[NMeA][dL][Dab][Phe(3-NH2)]V[Orn]C[Dab]-NH2; thioether N-14), the IC50 in assay [1] (μM, read-out: CBA Method 1 μM) came to 0.0159 µM; in assay [2] (setting [3]) it was 0.0146 µM.
As to `CC(C)C[C@H]1NC(=O)[C@H](C)N(C)C(=O)[C@H](CCC(N)=O)NC(=O)[C@H](Cc2ccc(-c3ccccc3)cc2)NC(=O)[C@H](Cc2ccc(C(=O)O)cc2)NC(=O)[C@H](Cc2cccc(C(F)(F)F)c2)NC(=O)[C@H](CC(=O)NS(=O)(=O)c2ccccc2Cl)NC(=O)[C@H](Cc2ccc(C(=O)O)cc2)NC(=O)[C@H](CN2CCOCC2)NC(=O)CSC[C@@H](C(=O)N[C@@H](CCN)C(N)=O)NC(=O)[C@H](CCCN)NC(=O)[C@H](C(C)C)NC(=O)[C@H](CC2CCCCC2)NC(=O)[C@H](CCN)NC1=O` [Example 5080] ({CH2CO}-[Ala(morpholin-4-yl)][Phe(4-COOH)][X6][Phe(3-CF3)][Phe(4-COOH)][Bip]Q[NMeA][dL][Dab][Cha]V[Orn]C[Dab]-NH2; thioether N-14), the IC50 in assay [1] (μM, read-out: CBA Method 1 μM) was 0.224 µM; in assay [2] (setting [3]), 0.332 µM.
Take `Cc1cccc(C[C@@H]2NC(=O)[C@H](CC(=O)O)NC(=O)[C@H](Cc3ccc(C(=O)O)cc3)NC(=O)[C@H](CN3CCOCC3)NC(=O)CSC[C@@H](C(=O)N[C@@H](CCN)C(N)=O)NC(=O)[C@H](CCCN)NC(=O)[C@H](C(C)C)NC(=O)[C@H](Cc3cccc(F)c3)NC(=O)[C@H](CCN)NC(=O)[C@@H](CC(C)C)NC(=O)[C@H](C)N(C)C(=O)[C@H](CCC(N)=O)NC(=O)[C@H](Cc3ccc(-c4ccccc4)cc3)NC(=O)[C@H](Cc3ccc(-c4ccc(C(=O)O)cc4)cc3)NC2=O)c1` [Example 5060] ({CH2CO}-[Ala(morpholin-4-yl)][Phe(4-COOH)]D[Phe(3-Me)][Bip(4'-COOH)][Bip]Q[NMeA][dL][Dab][Phe(3-F)]V[Orn]C[Dab]-NH2; thioether N-14): the IC50 in assay [1] (μM, read-out: CBA Method 1 μM) is 0.0068 µM; in assay [2] (setting [3]), 0.0093 µM.
`CC(C)C[C@H]1NC(=O)[C@H](C)N(C)C(=O)[C@H](CCC(N)=O)NC(=O)[C@H](Cc2ccc(-c3ccccc3)cc2)NC(=O)[C@H](Cc2cccc(CNC(=O)c3ccncc3)c2)NC(=O)[C@H](Cc2cccc(I)c2)NC(=O)[C@H](CC(=O)O)NC(=O)[C@H](Cc2ccc(OCC(=O)O)cc2)NC(=O)[C@H](CN2CCOCC2)NC(=O)CSC[C@@H](C(=O)N[C@@H](CCN)C(N)=O)NC(=O)[C@H](CCCN)NC(=O)[C@H](C(C)C)NC(=O)[C@H](CC2CCCCC2)NC(=O)[C@H](CCN)NC1=O` [Example 5020] ({CH2CO}-[Ala(morpholin-4-yl)]Y(Carboxymethyl)D[Phe(3-I)][X12][Bip]Q[NMeA][dL][Dab][Cha]V[Orn]C[Dab]-NH2; thioether N-14): the IC50 in assay [1] (nM, read-out: CBA Method 1) is 0.0058 µM; in assay [2] (nM, read-out: CBA Method 2) it was 0.005 µM.
With `CC(C)C[C@H]1NC(=O)[C@H](C)N(C)C(=O)[C@H](CCC(N)=O)NC(=O)[C@H](Cc2ccc(-c3ccccc3)cc2)NC(=O)[C@H](Cc2ccc(C(=O)O)cc2)NC(=O)[C@H](Cc2cccc(C(F)(F)F)c2)NC(=O)[C@H](CC(=O)NS(=O)(=O)c2ccc(Cl)cc2)NC(=O)[C@H](Cc2ccc(C(=O)O)cc2)NC(=O)[C@H](CN2CCOCC2)NC(=O)CSC[C@@H](C(=O)N[C@@H](CCN)C(N)=O)NC(=O)[C@H](CCCN)NC(=O)[C@H](C(C)C)NC(=O)[C@H](CC2CCCCC2)NC(=O)[C@H](CCN)NC1=O` [Example 5078] ({CH2CO}-[Ala(morpholin-4-yl)][Phe(4-COOH)][X2][Phe(3-CF3)][Phe(4-COOH)][Bip]Q[NMeA][dL][Dab][Cha]V[Orn]C[Dab]-NH2; thioether N-14), the IC50 was determined as 0.533 µM in assay [1] (μM, read-out: CBA Method 1 μM) and 0.264 µM in assay [2] (setting [3]).
Turning to `Cc1cccc(C[C@@H]2NC(=O)[C@H](CC(=O)O)NC(=O)[C@H](Cc3ccc(OCC(=O)O)cc3)NC(=O)[C@H](Cc3cccc(I)c3)NC(=O)CSC[C@@H](C(=O)N[C@@H](CCN)C(N)=O)NC(=O)[C@H](CCCN)NC(=O)[C@H](C(C)C)NC(=O)[C@H](CC3CCCCC3)NC(=O)[C@H](CCN)NC(=O)[C@@H](CC(C)C)NC(=O)[C@H](C)N(C)C(=O)[C@H](CCC(N)=O)NC(=O)[C@H](Cc3ccc(-c4ccccc4)cc3)NC(=O)[C@H](Cc3ccc(C(=O)O)cc3)NC2=O)c1` [Example 5036] ({CH2CO}-[Phe(3-I)]Y(Carboxymethyl)D[Phe(3-Me)][Phe(4-COOH)][Bip]Q[NMeA][dL][Dab][Cha]V[Orn]C[Dab]-NH2; thioether N-14), the IC50 in assay [1] (μM, read-out: CBA Method 1 μM) was found to be 0.0045 µM; in assay [2] (setting [3]), 0.0031 µM.
Regarding `CC(C)C[C@H]1NC(=O)[C@H](C)N(C)C(=O)[C@H](CCC(N)=O)NC(=O)[C@H](Cc2ccc(-c3ccccc3)cc2)NC(=O)[C@H](Cc2ccc(C(=O)O)cc2)NC(=O)[C@H](Cc2cccc(C(F)(F)F)c2)NC(=O)[C@H](CCNC(=O)CN(CC(=O)O)CC(=O)O)NC(=O)[C@H](Cc2ccc(C(=O)O)cc2)NC(=O)[C@H](CN2CCOCC2)NC(=O)CSC[C@@H](C(=O)N[C@@H](CCN)C(N)=O)NC(=O)[C@H](CCCN)NC(=O)[C@H](C(C)C)NC(=O)[C@H](CC2CCCCC2)NC(=O)[C@H](CCN)NC1=O` [Example 5076] ({CH2CO}-[Ala(morpholin-4-yl)][Phe(4-COOH)][Dab](NTA)[Phe(3-CF3)][Phe(4-COOH)][Bip]Q[NMeA][dL][Dab][Cha]V[Orn]C[Dab]-NH2; thioether N-14), the IC50 in assay [1] (μM, read-out: CBA Method 1 μM) is 0.463 µM; in assay [2] (setting [3]), 0.111 µM.
Turning to `CC(=O)Nc1ccc(-c2ccc(C[C@@H]3NC(=O)[C@H](Cc4cccc(C)c4)NC(=O)[C@H](CC(=O)O)NC(=O)[C@H](Cc4ccc(C(=O)O)cc4)NC(=O)[C@H]([C@H](C)N)NC(=O)CSC[C@@H](C(=O)N[C@@H](CCN)C(N)=O)NC(=O)[C@H](CCCN)NC(=O)[C@H](C(C)C)NC(=O)[C@H](Cc4cccc(F)c4)NC(=O)[C@H](CCN)NC(=O)[C@@H](CC(C)C)NC(=O)[C@H](C)N(C)C(=O)[C@H](CCC(N)=O)NC(=O)[C@H](Cc4ccc(-c5ccccc5)cc4)NC3=O)cc2)cc1` [Example 5052] ({CH2CO}-[Abu(3S-NH2)][Phe(4-COOH)]D[Phe(3-Me)][Bip(4'-NHAc)][Bip]Q[NMeA][dL][Dab][Phe(3-F)]V[Orn]C[Dab]-NH2; thioether N-14), the IC50 is 0.0081 µM in assay [1] (μM, read-out: CBA Method 1 μM) and 0.0084 µM in assay [2] (setting [3]).
With `Cc1cccc(C[C@@H]2NC(=O)[C@H](CC(=O)O)NC(=O)[C@H](Cc3ccc(OCC(=O)O)cc3)NC(=O)[C@H](CN3CCOCC3)NC(=O)CSC[C@@H](C(=O)N[C@@H](CCN)C(N)=O)NC(=O)[C@H](CCCN)NC(=O)[C@H](C(C)C)NC(=O)[C@H](CCc3ccccc3)NC(=O)[C@H](CCN)NC(=O)[C@@H](CC(C)C)NC(=O)[C@H](C)N(C)C(=O)[C@H](CCC(N)=O)NC(=O)[C@H](Cc3ccc(-c4ccccc4)cc3)NC(=O)[C@H](Cc3ccc(C(=O)O)cc3)NC2=O)c1` [Example 5015] ({CH2CO}-[Ala(morpholin-4-yl)]Y(Carboxymethyl)D[Phe(3-Me)][Phe(4-COOH)][Bip]Q[NMeA][dL][Dab][hPhe]V[Orn]C[Dab]-NH2; thioether N-14), the IC50 stood at 0.21 µM in assay [1] (μM, read-out: CBA Method 1 μM) and 0.31 µM in assay [2] (setting [3]).
Take `CC(C)C[C@@H]1NC(=O)[C@H](Cc2c[nH]c3ccccc23)NC(=O)[C@H](CC(N)=O)NC(=O)[C@H](Cc2cccc(OCC(=O)O)c2)NC(=O)[C@H](Cc2ccccc2)NC(=O)CSC[C@@H](C(=O)NCC(N)=O)NC(=O)[C@H](CO)NC(=O)[C@H](C(C)C)NC(=O)[C@H](CC(C)C)NC(=O)[C@H](CC(N)=O)NC(=O)[C@@H](CC(C)C)NC(=O)[C@H](C)N(C)C(=O)[C@H](C(C)C)NC(=O)[C@H](Cc2ccc(-c3ccccc3)cc2)NC1=O` [Example 5032] ({CH2CO}-F[Phe(3-OCH2COOH)]NWL[Bip]V[NMeA][dL]NLVSCG-NH2; thioether N-14): the IC50 in assay [1] (μM, read-out: CBA Method 1 μM) is 0.0987 µM; in assay [2] (setting [3]), 0.108 µM.
